Source: patent US7981939B2, “Application of 2-bromide-isovanillin for the manufacture of a medicament for anti-cancer or/and radiation/chemotherapy sensitization” (Institute of Radiation Medicine, Academy of Military …, priority 2005, dated 2011)

Legend:
[1] = system: human liver cancer cell line 7402; experiment: G2/M arrest by flow cytometry, 7402; format: cell-based; conditions: 7402, 40 μmol/L, 24 hrs
Experimental: By way of example, human liver cancer cell lines HepG2 and 7402, human ovarian cancer cell lines HOC8 and A2780, human glioma cell line BT325, lung cancer cell line A549, brain metastatic lung cancer cell line BT72 and prostate cancer cell line IB-4 were used to investigate the G2/M arresting of solid tumor cells of different tissue origins by 2-bromo-isovanillin as measured by the ratio of cells at G2/M phase. Specifically, the cancer cells were divided into two groups, and were treated with 0 or 40 μmol/L 2-bromo-isovanillin for 24 hours. Then the cells were harvested and analyzed for changes in cell cycle and cell apoptosis by flow cytometry.

[2] = system: human cervical cancer cell line HeLa; experiment: MTT assay, proliferation of HeLa cells; format: cell-based
Experimental: Human cervical cancer cell line HeLa, human liver cancer cell line HepG2/7221/7402, human ovarian cancer cell line HOC8/A2780, human glioma cell line BT325, lung cancer cell line A549, brain metastatic lung cancer cell line BT72 and normal human hepatic cell line LO2 were all grown in DMEM liquid medium supplemented with 10% newborn calf serum. Human leukemia cell line Jurkat was grown in 1640 medium supplemented with 10% newborn calf serum. The above cell lines were cultured in a CO2 incubator at 5% CO2 at 37° C.
By way of example, human cervical cancer cell line HeLa was used to study the effect of vanillin on the proliferation of cancer cells by MTT assay. Specifically, human cervical cancer cells HeLa were seeded into a 96-well plate at a density of 5×10^3 cells/well, and were divided into four groups. To each of the groups vanillin was added at a concentration of 0, 100, 250 or 500 μmol/L, respectively, and was allowed to grow for 4 days. Using the MTT assay, the optical density (OD) values at 490 nm were measured and recorded every day, wherein the OD value is indicative of the number of cells, i.e., the proliferation of cells.
By way of example, human cervical cancer cell line HeLa was used to study the effect of several vanillin derivatives for 72 hrs on the proliferation of cancer cells by MTT assay. Specifically, human cervical cancer cells HeLa were seeded into a 96-well plate at a density of 5×10^3 cells/well, and were divided into four groups. To each of the groups were added increasing concentrations (0, 10, 20, 30, 40 μmol/L) of vanillin derivatives ethyl vanillin (Code No. VAND3206), 4-methoxy vanillin (Code No. VAND3207), isovanillin (Code No. VAND3209) and 2-bromo-isovanillin (Code No. VAND3208), and the cells were cultured for 72 hrs. Using the MTT assay, the optical density (OD) values at 490 nm were measured and recorded every day, wherein the OD value is indicative of the number of cells, i.e., the proliferation of cells.
By way of example, human cervical cancer cell line HeLa was used to study the inhibitory effect of 2-bromo-isovanillin at different concentrations for different periods of time on the proliferation of cancer cells by MTT assay. Specifically, human cervical cancer cells HeLa were seeded into a 96-well plate at a density of 5×10^3 cells/well, and were divided into […]. To each of the groups 2-bromo-isovanillin was added at a concentration of 0, 10, 20, 30, 40 or 50 μmol/L, and was cultured for 14 days, respectively. Using the MTT assay, the optical density (OD) values at 490 nm were measured and recorded every day, wherein the OD value is indicative of the number of cells, i.e., the proliferation of cells.

tumor cells = experiment: Tumor inhibition upon administration for 6 consecutive days (summary statement)

## COc1ccc(C=O)c(Br)c1O [2-bromo-isovanillin, 2-bromo-3-hydroxy-4-methoxybenzaldehyde]
[1]
  cell cycle effect: arrested at G2/M phase
[2]; 20 μmol/L
  effect on the proliferation of HeLa cells: remarkable inhibitory effect
[2]; 30 μmol/L or above for 4 days
  effect on the proliferation of HeLa cells: completely lost their proliferative capabilities
[2]; concentrations of less than 40 μmol/L, up to 72 hrs
  effect on the proliferation of HeLa cells: significant inhibition
Tumor cells
  tumor inhibition: 80-95%
